According to patent US20040235849A1, “Tetrahydroquinoxalines acting as bradykinin antagonists” (priority 2001, published 2004):
pIC50: −log10 of the molar value.

Molecular target: T1, human B1 receptor (Homo sapiens, UniProt P46663)
T1 construct: expressed in transfected cells
T1 sequence (P46663 1-353): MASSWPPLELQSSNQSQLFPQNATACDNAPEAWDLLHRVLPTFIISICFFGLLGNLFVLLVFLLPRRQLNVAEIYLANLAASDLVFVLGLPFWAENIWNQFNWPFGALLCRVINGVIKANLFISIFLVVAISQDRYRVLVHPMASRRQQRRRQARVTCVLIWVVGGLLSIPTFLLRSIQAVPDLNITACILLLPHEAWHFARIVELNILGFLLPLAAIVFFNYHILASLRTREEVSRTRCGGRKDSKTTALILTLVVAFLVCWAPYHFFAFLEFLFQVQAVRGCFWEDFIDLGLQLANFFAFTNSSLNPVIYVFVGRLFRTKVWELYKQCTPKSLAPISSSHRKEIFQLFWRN
Assay: Functional in vitro assay: B1 receptor antagonism measured via agonist-induced intracellular calcium release in recombinant cell lines
Assay type: cell-based
Conditions: stable cell lines, e.g. CHO or HEK 293, recombinantly expressing the human B1 receptor
Description: 1. Functional in vitro Assay
Agonists such as des-Arg9-BK and des-Arg10-kallidin activate the B1 receptor and lead, via stimulation of phospholipase C, to release of calcium ions from intracellular stores. Antagonists block the activation of the receptor by the agonists and thus also the agonist-dependent stimulation of phospholipase C and the intracellular calcium release induced thereby.
A functional in vitro assay can be carried out with stable cell lines, e.g. CHO or HEK 293, which recombinantly express the human B1 receptor. This entails measuring the activation of the receptor by the agonist indirectly via the intracellular calcium release induced thereby (in microtiter plates with 96, 384 and 1536 wells/plate). The effect of the tested substances can be stated as IC50.

| pIC50 | Compound |
| --- | --- |
| 7.60 | O=C(CC1C(=O)Nc2ccccc2N1S(=O)(=O)c1cc(Cl)ccc1Oc1ccc(Cl)cc1)NC1CCCCCC1 (centres unmarked) [Example 170] |
| 7.77 | O=C(CC1C(=O)Nc2ccccc2N1S(=O)(=O)c1ccc(Cl)cc1Cl)NC1CCCCCC1 (centres unmarked) [Example 177] |
